Test results published in patent US20060063759A1, “Tricyclic steroid hormone nuclear receptor modulators” (priority 2002, published 2006).
Where two headings read alike, the source gives them in different places.

What was measured:
[1] = target: T1, glucocorticoid receptor (Homo sapiens, UniProt P04150); experiment: Glucocorticoid Receptor Binding Assay ([3H]-dexamethasone, A549 cell extract); conditions: [3H]-dexamethasone binding, read-out: GR Ki
T1 construct: containing 50-200 ug of A549 cell extract and 1.86 nM [^3H]-dexamethasone; host or cells: A549 human lung epithelial cells (sonicated cell extract)
T1 sequence (P04150 1-777): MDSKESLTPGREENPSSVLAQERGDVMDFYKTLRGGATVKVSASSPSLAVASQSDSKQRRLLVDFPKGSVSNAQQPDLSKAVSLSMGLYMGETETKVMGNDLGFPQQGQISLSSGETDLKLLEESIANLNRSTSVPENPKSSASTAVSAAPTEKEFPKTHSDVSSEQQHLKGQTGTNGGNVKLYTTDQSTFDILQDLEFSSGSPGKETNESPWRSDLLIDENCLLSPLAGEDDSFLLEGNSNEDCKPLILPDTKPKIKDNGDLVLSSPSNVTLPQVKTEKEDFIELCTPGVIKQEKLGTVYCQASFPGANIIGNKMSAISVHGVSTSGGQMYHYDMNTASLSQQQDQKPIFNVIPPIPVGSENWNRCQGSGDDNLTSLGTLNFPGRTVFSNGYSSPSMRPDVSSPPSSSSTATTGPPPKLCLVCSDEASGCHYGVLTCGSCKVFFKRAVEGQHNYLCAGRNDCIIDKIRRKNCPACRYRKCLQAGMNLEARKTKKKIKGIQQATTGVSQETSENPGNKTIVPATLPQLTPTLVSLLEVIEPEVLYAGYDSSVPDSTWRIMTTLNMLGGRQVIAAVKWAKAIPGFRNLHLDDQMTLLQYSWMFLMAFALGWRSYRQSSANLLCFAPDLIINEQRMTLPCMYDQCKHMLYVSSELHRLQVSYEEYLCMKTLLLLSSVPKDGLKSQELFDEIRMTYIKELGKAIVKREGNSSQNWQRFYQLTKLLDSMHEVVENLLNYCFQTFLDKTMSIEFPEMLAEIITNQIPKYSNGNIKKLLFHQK
Procedure, shortened: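 A549 cell extract (50–200 ug) incubated with 1.86 nM [3H]-dexamethasone and test compound for 16 h at 4 °C in Tris-HCl pH 7.2 buffer with glycerol and molybdate. Unbound radioligand removed by dextran-coated charcoal, then supernatant bound counts measured by scintillation.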

[2] = target: T2, human MR (Homo sapiens, UniProt P08235); experiment: Mineralocorticoid Receptor Binding Assay ([3H]-aldosterone)
T2 construct: The full length human MR gene is cloned from a human kidney or human brain cDNA library; His tag from the pAcHLT vector (own knowledge); made in house; host or cells: Sf9 insect cells (baculovirus, pAcHLT transfer vector)
T2 sequence (P08235 1-984): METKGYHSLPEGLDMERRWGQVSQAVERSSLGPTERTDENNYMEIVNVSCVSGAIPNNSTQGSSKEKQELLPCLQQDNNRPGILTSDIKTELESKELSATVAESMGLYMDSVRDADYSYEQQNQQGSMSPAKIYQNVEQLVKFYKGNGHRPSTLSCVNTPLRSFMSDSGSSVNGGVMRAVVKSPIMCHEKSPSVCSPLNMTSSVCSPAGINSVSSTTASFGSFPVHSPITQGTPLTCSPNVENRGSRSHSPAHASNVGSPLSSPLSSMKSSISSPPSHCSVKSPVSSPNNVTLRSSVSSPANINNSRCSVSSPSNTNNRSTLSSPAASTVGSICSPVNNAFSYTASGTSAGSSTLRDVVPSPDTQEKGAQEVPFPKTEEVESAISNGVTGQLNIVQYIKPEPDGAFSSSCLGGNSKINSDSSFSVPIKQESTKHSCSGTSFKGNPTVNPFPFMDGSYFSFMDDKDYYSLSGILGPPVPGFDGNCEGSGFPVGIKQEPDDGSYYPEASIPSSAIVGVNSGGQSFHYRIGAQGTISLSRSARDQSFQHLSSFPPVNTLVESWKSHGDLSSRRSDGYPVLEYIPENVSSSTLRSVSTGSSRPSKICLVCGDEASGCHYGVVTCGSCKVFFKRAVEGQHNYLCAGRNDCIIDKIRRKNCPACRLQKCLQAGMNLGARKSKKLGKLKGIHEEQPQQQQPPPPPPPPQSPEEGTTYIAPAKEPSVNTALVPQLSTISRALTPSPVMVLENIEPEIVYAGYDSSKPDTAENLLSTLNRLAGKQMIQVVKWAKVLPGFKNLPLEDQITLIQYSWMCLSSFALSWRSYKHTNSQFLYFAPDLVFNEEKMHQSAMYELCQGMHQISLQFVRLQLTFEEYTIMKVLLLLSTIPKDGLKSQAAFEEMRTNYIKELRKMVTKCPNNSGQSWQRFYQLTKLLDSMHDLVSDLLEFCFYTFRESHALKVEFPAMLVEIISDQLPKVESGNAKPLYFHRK
Procedure, shortened: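 Lysate supernatant of Sf9 cells expressing full-length human MR (20-25 μg protein) was incubated with 0.5 nM [3H]-aldosterone and test compound in molybdate/Tris/phosphate/glycerol buffer, pH 7.5, ~16 h at 4 °C. Bound ligand was filtered and counted by scintillation; IC50 is the concentration halving [3H]-aldosterone binding.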

[3] = [3H]-aldosterone binding, human MR expressed in Sf9 cells, read-out: MR Ki

SMILES | Ki [1] | Ki [2, 3] | Ki [2]
CS(=O)(=O)Nc1cccc(/C=C2\c3ccccc3CCc3cc(NS(C)(=O)=O)ccc32)c1 [Example 339] | < 500 nM | < 500 nM | –
Oc1cccc(/C=C2/c3ccccc3CCc3cccc(Cl)c32)c1 [Example 367] | < 10000 nM | < 500 nM | –
O=c1[nH]c2cc(C=C3c4ccc(F)cc4CCc4cc(F)ccc43)ccc2n1CCN1CCOCC1 [Example 436, 5-(2,8-difluoro-10,11-dihydro-dibenzo[a,d]cyclohepten-5-ylidenemethyl)-1-(2-morpholin-4-yl-ethyl)-1,3-dihydro-benzoimidazol-2-one] | < 1000 nM | < 500 nM | –
COc1cccc(C=C2c3ccccc3C(=O)N(C)c3ccc(Cl)cc32)c1 [Example 656] | < 500 nM | < 500 nM | –
CS(=O)(=O)Nc1cccc(C=C2c3ccccc3CCc3occc32)c1 [Example 504] | < 500 nM | < 500 nM | –
O=c1[nH]c2ccc(C=C3c4cc(F)ccc4COc4ccccc43)cc2[nH]1 [Example 714] | < 10000 nM | < 500 nM | –
CC(=O)Nc1cccc2c1CCc1ccccc1C2=Cc1cccc(NS(C)(=O)=O)c1 [Example 406] | < 500 nM | < 500 nM | –
C/C(=C1\c2ccccc2COc2cc(C)c(Br)cc21)c1cccc(NS(C)(=O)=O)c1 [Example 785] | < 500 nM | < 500 nM | –
CS(=O)(=O)NCc1cccc(/C=C2\c3ccccc3CSc3ccccc32)c1 [Example 722] | < 500 nM | < 500 nM | –
N#Cc1ccc2c(c1)CCc1ccccc1/C2=C/c1cccc(O)c1 [Example 340] | < 500 nM | < 500 nM | –
O=S(=O)(Nc1cccc(C=C2c3ccccc3CCc3ccccc32)c1)C(F)(F)F [Example 281] | < 10000 nM | < 500 nM | –
Oc1cncc(C=C2c3ccccc3CCc3ccccc32)c1 [Example 236, 5-(10,11-Dihydro-dibenzo[a,d]cyclohepten-5-ylidenemethyl)pyridin-3-ol] | < 500 nM | < 500 nM | –
CS(=O)(=O)Nc1cccc(/C=C2\c3ccccc3CCc3cc(C(F)F)ccc32)c1 [Example 375] | < 500 nM | < 500 nM | –
CS(=O)(=O)Nc1cccc(/C=C2\c3ccccc3CCc3cc(C(N)=O)ccc32)c1 [Example 416] | < 500 nM | < 500 nM | –
CS(=O)(=O)Nc1cccc(/C=C2/c3ccccc3CSc3cc(F)ccc32)c1 [Example 745] | < 500 nM | < 500 nM | –
COc1ccc2c(c1)COc1cc(F)ccc1/C2=C(\C)c1cccc(NS(C)(=O)=O)c1 [Example 820] | < 500 nM | – | < 500 nM
C(=C1c2ccccc2CSc2ccccc21)c1ccccc1 [Example 701] | < 500 nM | < 500 nM | –
O=c1[nH]c2ccc(/C=C3/c4ccc(F)cc4CCc4nc(Cl)sc43)cc2[nH]1 [Example 549] | < 10000 nM | < 500 nM | –
COC(=O)c1ccccc1/C=C1/c2ccc(F)cc2CCc2ncccc21 [Example 589] | < 500 nM | < 500 nM | –
Nc1ccc(C=C2c3ccccc3CCc3cc(Cl)ccc32)cc1 [Example 394] | < 500 nM | < 500 nM | –

SMILES | Ki [1] | Ki [2, 3] | Ki [2]
CS(=O)(=O)Nc1cccc(C=C2c3ccccc3CCc3cc(Cl)ccc32)c1 [206(b), N-[3-(2-Chloro-10,11-dihydro-dibenzo[a,d]cyclohepten-5-ylidenemethyl)-phenyl]-methanesulfonamide] | < 500 nM | < 500 nM | –
CC(=C1c2ccccc2CCc2cc(C)ccc21)c1cccc(NS(C)(=O)=O)c1 [Example 773] | < 500 nM | < 500 nM | –
CS(=O)(=O)Nc1cccc(/C=C2\c3ccc(Cl)cc3CCc3ncsc32)c1 [Example 553] | < 500 nM | < 500 nM | –
Oc1cccc(C=C2c3ccccc3CCc3ccccc32)c1 [Example 57, 3-(10,11-Dihydro-dibenzo[a,d]cyclohepten-5-ylidenemethyl)-phenol] | < 500 nM | < 500 nM | –
CS(=O)(=O)Nc1cccc(/C=C2\c3cccnc3CCc3c(Cl)cccc32)c1 [Example 567] | < 10000 nM | < 500 nM | –
O=c1[nH]c2ccc(C=C3c4cccc(F)c4CCc4c(F)cccc43)cc2[nH]1 [Example 470] | < 10000 nM | < 500 nM | –
CC/C(=C1/c2ccccc2CCc2cc(C)ccc21)c1cccc(NS(C)(=O)=O)c1 [Example 780] | < 500 nM | < 500 nM | –
Cn1cnc(S(=O)(=O)Nc2cccc(C=C3c4ccccc4CCc4cc(Cl)ccc43)c2)c1 [Example 296] | < 10000 nM | < 500 nM | –
CS(=O)(=O)Nc1cc(C=C2c3ccccc3CCc3ccccc32)ccc1F [Example 49, N-[5-(10,11-Dihydro-dibenzo[a,d]cyclohepten-5-ylidenemethyl)-2-fluoro-phenyl]-methanesulfonamide] | < 500 nM | < 500 nM | –
CS(=O)(=O)Nc1cccc(/C=C2\c3ccc(F)cc3CCc3nc(C(F)(F)F)ccc32)c1 [Example 522] | < 500 nM | < 500 nM | –
C/C(=C1\c2ccccc2COc2cc(OCC3CC3)ccc21)c1cccc(NS(C)(=O)=O)c1 [Example 813] | < 500 nM | < 500 nM | –
CS(=O)(=O)Nc1cccc(/C=C2\c3ccccc3COc3c(F)cccc32)c1 [Example 670] | < 500 nM | < 500 nM | –
COc1ccc(NS(C)(=O)=O)cc1C=C1c2ccccc2CCc2ccccc21 [Example 42, N-[3-(10,11-Dihydro-dibenzo[a,d]cyclohepten-5-ylidenemethyl)-4-methoxy-phenyl]-methanesulfonamide] | < 10000 nM | < 500 nM | –
Cc1cccc2c1CCc1ccccc1C2=Cc1cccc(NS(C)(=O)=O)c1 [Example 303] | < 500 nM | < 500 nM | –
Oc1cccc(/C=C2\c3ccccc3CCc3ncccc32)c1 [Example 254, (E)-3-(10,11-Dihydro-benzo[4,5]cyclohepta[1,2-b]pyridin-5-ylidenemethyl)-phenol] | < 500 nM | < 500 nM | –
CS(=O)(=O)Nc1cccc(/C=C2/c3ccccc3COc3ccccc32)c1 [Example 268, N-[3-(6H-Dibenzo[b,e]oxepin-11-ylidenemethyl)-phenyl]-methanesulfonamide] | < 500 nM | < 500 nM | –
CS(=O)(=O)Nc1cccc(/C=C2/c3ccccc3CCc3c(N)cccc32)c1 [Example 410] | < 500 nM | < 500 nM | –
CCCS(=O)(=O)Nc1ccc(C=C2c3ccccc3CCc3ccccc32)cc1 [Example 108, Propane-1-sulfonic acid [4-(10,11-dihydro-dibenzo[a,d]cyclohepten-5-ylidenemethyl)-phenyl]-amide] | < 500 nM | < 500 nM | –
CS(=O)(=O)Nc1cccc(/C=C2/c3ccccc3CCc3cc(C(=O)O)ccc32)c1 [Example 418] | < 1000 nM | < 500 nM | –
